Measured values: article PMC7481290, “Halogenation as a tool to tune antimicrobial activity of peptoids” (Scientific Reports, 2020)
In brackets after ≈: the same amount, converted by molar mass. Non-standard residues stand in square brackets, D forms with d. Residues, ends and D or L forms follow the SMILES beside them. Gly(Nα-4-Cl-benzyl) = O=C(O)CNCc1ccc(Cl)cc1; N(4-Br-benzyl)Gly = O=C(O)CNCc1ccc(Br)cc1; N(4-F-Bzl)Gly = O=C(O)CNCc1ccc(F)cc1; NBzl(4-I)Gly = O=C(O)CNCc1ccc(I)cc1; Nphe = O=C(O)CNCc1ccccc1; Nlys = NCCCCNCC(=O)O

Tests used:
E. coli ATCC 25922 = type: cell-based, Escherichia coli; conditions: ATCC 25922, 18 h
Description: (§1) Bacterial growth inhibition was determined by using broth microdilution according to the Clinical Laboratory Standards Institute[43]. The antibacterial activity of peptoids was tested against S. aureus ATCC 25923, ATCC29213, and methicillin resistant S. aureus USA 300, methicillin resistant S. epidermidis ATCC 51625, a biofilm producing methicillin resistant S. epidermidis ET-024[44], P. aeruginosa Pa01 (H103), and E. coli ATCC 25922. Bacteria, grown on agar plates for 18 h at 37 °C, were diluted to ∼1 × 10^8 CFU/mL in Mueller‐Hinton Broth II (MHB II). Twofold serial dilutions of peptoids in MHB II were inoculated with bacteria to achieve a final concentration of 5 × 10^5 CFU/mL in polypropylene 96 U‐well microtiter plates (Corning 3,897; ThermoFisher Scientific, Roskilde), followed by incubation at 37 °C in ambient air for 18 h. The MIC values were determined as the lowest concentration showing no visible bacterial growth. Experiments were performed twice (in technical triplicates) on 2 different days.

[1] = tested on: Methicillin-resistant S. epidermidis ATCC 51625; type: cell-based, Staphylococcus epidermidis; conditions: ATCC 51625, 18 h
Description: as §1

[2] = tested on: Methicillin-resistant S. epidermidis ET-024; type: cell-based, Staphylococcus epidermidis; conditions: Methicillin-resistant ET-024, 18 h
Description: as §1

S. aureus ATCC 29213 = type: cell-based, Staphylococcus aureus; conditions: ATCC 29213, 18 h
Description: as §1

S. aureus ATCC 25923 = type: cell-based, Staphylococcus aureus; conditions: ATCC 25923, 18 h
Description: as §1

[3] = tested on: Methicillin-resistant S. aureus USA 300; type: cell-based, Staphylococcus aureus; conditions: USA 300, 18 h
Description: as §1

[4] = tested on: P. aeruginosa PA01 (H103); type: cell-based, Pseudomonas aeruginosa; conditions: H103, 18 h
Description: as §1

NCCCCNCC(=O)N(CC(=O)N(CCCCN)CC(=O)N(CC(=O)N(CCCCN)CC(=O)N(CC(=O)N(CCCCN)CC(=O)N(CC(=O)N(CCCCN)CC(=O)N(CC(=O)N(CCCCN)CC(=O)N(CC(N)=O)Cc1ccc(Br)cc1)Cc1ccccc1)Cc1ccc(Br)cc1)Cc1ccccc1)Cc1ccc(Br)cc1)Cc1ccccc1 [Compound 35] (H-[Nlys][Nphe][Nlys][N(4-Br-benzyl)Gly][Nlys][Nphe][Nlys][N(4-Br-benzyl)Gly][Nlys][Nphe][Nlys][N(4-Br-benzyl)Gly]-NH2)
Minimal inhibitory concentration EC^f (E. coli ATCC 25922): 256 µg/mL (≈ 134 µM)
Minimal inhibitory concentration MRSE^e [1]: 1 µg/mL (≈ 0.525 µM)
Minimal inhibitory concentration MRSE^d [2]: 8 µg/mL (≈ 4.2 µM)
Minimal inhibitory concentration SA^b (S. aureus ATCC 29213): 8 µg/mL (≈ 4.2 µM)
Minimal inhibitory concentration SA^a (S. aureus ATCC 25923): 8 µg/mL (≈ 4.2 µM)
Minimal inhibitory concentration MRSA^c [3]: 8 µg/mL (≈ 4.2 µM)
Minimal inhibitory concentration PA^g [4]: > 512 µg/mL

NCCCCNCC(=O)N(CC(=O)N(CCCCN)CC(=O)N(CC(=O)N(CCCCN)CC(=O)N(CC(=O)N(CCCCN)CC(=O)N(CC(=O)N(CCCCN)CC(=O)N(CC(=O)N(CCCCN)CC(=O)N(CC(N)=O)Cc1ccc(Br)cc1)Cc1ccc(Br)cc1)Cc1ccc(Br)cc1)Cc1ccc(Br)cc1)Cc1ccc(Br)cc1)Cc1ccc(Br)cc1 [Compound 31] (H-[Nlys][N(4-Br-benzyl)Gly][Nlys][N(4-Br-benzyl)Gly][Nlys][N(4-Br-benzyl)Gly][Nlys][N(4-Br-benzyl)Gly][Nlys][N(4-Br-benzyl)Gly][Nlys][N(4-Br-benzyl)Gly]-NH2)
Minimal inhibitory concentration EC^f (E. coli ATCC 25922): 64 µg/mL (≈ 29.9 µM)
Minimal inhibitory concentration MRSE^e [1]: 4 µg/mL (≈ 1.87 µM)
Minimal inhibitory concentration MRSE^d [2]: 4 µg/mL (≈ 1.87 µM)
Minimal inhibitory concentration SA^b (S. aureus ATCC 29213): 8 µg/mL (≈ 3.73 µM)
Minimal inhibitory concentration SA^a (S. aureus ATCC 25923): 4 µg/mL (≈ 1.87 µM)
Minimal inhibitory concentration MRSA^c [3]: 2 µg/mL (≈ 0.933 µM)
Minimal inhibitory concentration PA^g [4]: 256 µg/mL (≈ 119 µM)

NCCCCNCC(=O)N(CC(=O)N(CCCCN)CC(=O)N(CC(=O)N(CCCCN)CC(=O)N(CC(=O)N(CCCCN)CC(=O)N(CC(=O)N(CCCCN)CC(=O)N(CC(=O)N(CCCCN)CC(=O)N(CC(N)=O)Cc1ccc(F)cc1)Cc1ccccc1)Cc1ccc(F)cc1)Cc1ccccc1)Cc1ccc(F)cc1)Cc1ccccc1 [Compound 33] (H-[Nlys][Nphe][Nlys][N(4-F-Bzl)Gly][Nlys][Nphe][Nlys][N(4-F-Bzl)Gly][Nlys][Nphe][Nlys][N(4-F-Bzl)Gly]-NH2)
Minimal inhibitory concentration EC^f (E. coli ATCC 25922): 256 µg/mL (≈ 149 µM)
Minimal inhibitory concentration MRSE^e [1]: 4 µg/mL (≈ 2.32 µM)
Minimal inhibitory concentration MRSE^d [2]: 16 µg/mL (≈ 9.29 µM)
Minimal inhibitory concentration SA^b (S. aureus ATCC 29213): 256 µg/mL (≈ 149 µM)
Minimal inhibitory concentration SA^a (S. aureus ATCC 25923): 256 µg/mL (≈ 149 µM)
Minimal inhibitory concentration MRSA^c [3]: 128 µg/mL (≈ 74.3 µM)
Minimal inhibitory concentration PA^g [4]: 256 µg/mL (≈ 149 µM)

NCCCCNCC(=O)N(CC(=O)N(CCCCN)CC(=O)N(CC(=O)N(CCCCN)CC(=O)N(CC(N)=O)Cc1ccc(F)cc1)Cc1ccc(F)cc1)Cc1ccc(F)cc1 [Compound 2] (H-[Nlys][N(4-F-Bzl)Gly][Nlys][N(4-F-Bzl)Gly][Nlys][N(4-F-Bzl)Gly]-NH2)
Minimal inhibitory concentration EC^f (E. coli ATCC 25922): 512 µg/mL (≈ 571 µM)
Minimal inhibitory concentration MRSE^e [1]: 512 µg/mL (≈ 571 µM)
Minimal inhibitory concentration MRSE^d [2]: 128 µg/mL (≈ 143 µM)
Minimal inhibitory concentration SA^b (S. aureus ATCC 29213): > 512 µg/mL
Minimal inhibitory concentration SA^a (S. aureus ATCC 25923): > 512 µg/mL
Minimal inhibitory concentration MRSA^c [3]: 512 µg/mL (≈ 571 µM)
Minimal inhibitory concentration PA^g [4]: > 512 µg/mL

NCCCCNCC(=O)N(CC(=O)N(CCCCN)CC(=O)N(CC(=O)N(CCCCN)CC(=O)N(CC(=O)N(CCCCN)CC(=O)N(CC(N)=O)Cc1ccc(Cl)cc1)Cc1ccccc1)Cc1ccc(Cl)cc1)Cc1ccccc1 [Compound 16] (H-[Nlys][Nphe][Nlys][Gly(Nα-4-Cl-benzyl)][Nlys][Nphe][Nlys][Gly(Nα-4-Cl-benzyl)]-NH2)
Minimal inhibitory concentration EC^f (E. coli ATCC 25922): 256 µg/mL (≈ 216 µM)
Minimal inhibitory concentration MRSE^e [1]: 8 µg/mL (≈ 6.74 µM)
Minimal inhibitory concentration MRSE^d [2]: 8 µg/mL (≈ 6.74 µM)
Minimal inhibitory concentration SA^b (S. aureus ATCC 29213): 64 µg/mL (≈ 53.9 µM)
Minimal inhibitory concentration SA^a (S. aureus ATCC 25923): 16 µg/mL (≈ 13.5 µM)
Minimal inhibitory concentration MRSA^c [3]: 16 µg/mL (≈ 13.5 µM)
Minimal inhibitory concentration PA^g [4]: 512 µg/mL (≈ 431 µM)

NCCCCNCC(=O)N(CC(=O)N(CCCCN)CC(=O)N(CC(=O)N(CCCCN)CC(=O)N(CC(N)=O)Cc1ccc(Br)cc1)Cc1ccccc1)Cc1ccc(Br)cc1 [Compound 8] (H-[Nlys][N(4-Br-benzyl)Gly][Nlys][Nphe][Nlys][N(4-Br-benzyl)Gly]-NH2)
Minimal inhibitory concentration EC^f (E. coli ATCC 25922): 256 µg/mL (≈ 256 µM)
Minimal inhibitory concentration MRSE^e [1]: 16 µg/mL (≈ 16 µM)
Minimal inhibitory concentration MRSE^d [2]: 32 µg/mL (≈ 32 µM)
Minimal inhibitory concentration SA^b (S. aureus ATCC 29213): 64 µg/mL (≈ 63.9 µM)
Minimal inhibitory concentration SA^a (S. aureus ATCC 25923): 128 µg/mL (≈ 128 µM)
Minimal inhibitory concentration MRSA^c [3]: 64 µg/mL (≈ 63.9 µM)
Minimal inhibitory concentration PA^g [4]: 256 µg/mL (≈ 256 µM)

NCCCCNCC(=O)N(CC(=O)N(CCCCN)CC(=O)N(CC(=O)N(CCCCN)CC(=O)N(CC(=O)N(CCCCN)CC(=O)N(CC(=O)N(CCCCN)CC(=O)N(CC(=O)N(CCCCN)CC(=O)N(CC(N)=O)Cc1ccc(Cl)cc1)Cc1ccc(Cl)cc1)Cc1ccc(Cl)cc1)Cc1ccc(Cl)cc1)Cc1ccc(Cl)cc1)Cc1ccc(Cl)cc1 [Compound 30] (H-[Nlys][Gly(Nα-4-Cl-benzyl)][Nlys][Gly(Nα-4-Cl-benzyl)][Nlys][Gly(Nα-4-Cl-benzyl)][Nlys][Gly(Nα-4-Cl-benzyl)][Nlys][Gly(Nα-4-Cl-benzyl)][Nlys][Gly(Nα-4-Cl-benzyl)]-NH2)
Minimal inhibitory concentration EC^f (E. coli ATCC 25922): 64 µg/mL (≈ 34.1 µM)
Minimal inhibitory concentration MRSE^e [1]: 1 µg/mL (≈ 0.533 µM)
Minimal inhibitory concentration MRSE^d [2]: 2 µg/mL (≈ 1.07 µM)
Minimal inhibitory concentration SA^b (S. aureus ATCC 29213): 2 µg/mL (≈ 1.07 µM)
Minimal inhibitory concentration SA^a (S. aureus ATCC 25923): 2 µg/mL (≈ 1.07 µM)
Minimal inhibitory concentration MRSA^c [3]: 2 µg/mL (≈ 1.07 µM)
Minimal inhibitory concentration PA^g [4]: > 512 µg/mL

NCCCCNCC(=O)N(CC(=O)N(CCCCN)CC(=O)N(CC(=O)N(CCCCN)CC(=O)N(CC(=O)N(CCCCN)CC(=O)N(CC(N)=O)Cc1ccc(I)cc1)Cc1ccccc1)Cc1ccc(I)cc1)Cc1ccccc1 [Compound 18] (H-[Nlys][Nphe][Nlys][NBzl(4-I)Gly][Nlys][Nphe][Nlys][NBzl(4-I)Gly]-NH2)
Minimal inhibitory concentration EC^f (E. coli ATCC 25922): 256 µg/mL (≈ 187 µM)
Minimal inhibitory concentration MRSE^e [1]: 4 µg/mL (≈ 2.92 µM)
Minimal inhibitory concentration MRSE^d [2]: 8 µg/mL (≈ 5.84 µM)
Minimal inhibitory concentration SA^b (S. aureus ATCC 29213): 32 µg/mL (≈ 23.4 µM)
Minimal inhibitory concentration SA^a (S. aureus ATCC 25923): 32 µg/mL (≈ 23.4 µM)
Minimal inhibitory concentration MRSA^c [3]: 16 µg/mL (≈ 11.7 µM)
Minimal inhibitory concentration PA^g [4]: > 512 µg/mL

NCCCCNCC(=O)N(CC(=O)N(CCCCN)CC(=O)N(CC(=O)N(CCCCN)CC(=O)N(CC(=O)N(CCCCN)CC(=O)N(CC(=O)N(CCCCN)CC(=O)N(CC(=O)N(CCCCN)CC(=O)N(CC(N)=O)Cc1ccc(Cl)cc1)Cc1ccccc1)Cc1ccc(Cl)cc1)Cc1ccccc1)Cc1ccc(Cl)cc1)Cc1ccccc1 [Compound 34] (H-[Nlys][Nphe][Nlys][Gly(Nα-4-Cl-benzyl)][Nlys][Nphe][Nlys][Gly(Nα-4-Cl-benzyl)][Nlys][Nphe][Nlys][Gly(Nα-4-Cl-benzyl)]-NH2)
Minimal inhibitory concentration EC^f (E. coli ATCC 25922): 256 µg/mL (≈ 144 µM)
Minimal inhibitory concentration MRSE^e [1]: 1 µg/mL (≈ 0.564 µM)
Minimal inhibitory concentration MRSE^d [2]: 4 µg/mL (≈ 2.26 µM)
Minimal inhibitory concentration SA^b (S. aureus ATCC 29213): 8 µg/mL (≈ 4.51 µM)
Minimal inhibitory concentration SA^a (S. aureus ATCC 25923): 16 µg/mL (≈ 9.03 µM)
Minimal inhibitory concentration MRSA^c [3]: 8 µg/mL (≈ 4.51 µM)
Minimal inhibitory concentration PA^g [4]: > 512 µg/mL

NCCCCNCC(=O)N(CC(=O)N(CCCCN)CC(=O)N(CC(=O)N(CCCCN)CC(=O)N(CC(N)=O)Cc1ccc(Br)cc1)Cc1ccc(Br)cc1)Cc1ccc(Br)cc1 [Compound 4] (H-[Nlys][N(4-Br-benzyl)Gly][Nlys][N(4-Br-benzyl)Gly][Nlys][N(4-Br-benzyl)Gly]-NH2)
Minimal inhibitory concentration EC^f (E. coli ATCC 25922): 64 µg/mL (≈ 59.3 µM)
Minimal inhibitory concentration MRSE^e [1]: 4 µg/mL (≈ 3.7 µM)
Minimal inhibitory concentration MRSE^d [2]: 4 µg/mL (≈ 3.7 µM)
Minimal inhibitory concentration SA^b (S. aureus ATCC 29213): 16 µg/mL (≈ 14.8 µM)
Minimal inhibitory concentration SA^a (S. aureus ATCC 25923): 16 µg/mL (≈ 14.8 µM)
Minimal inhibitory concentration MRSA^c [3]: 16 µg/mL (≈ 14.8 µM)
Minimal inhibitory concentration PA^g [4]: > 512 µg/mL
